Source: patent US12459922B2 (Gilead Sciences, Inc., priority 2022, dated 2025)

test system: endogenous cellular STAT1 (phosphorylated at Tyr701) in NCI-H1373 cells; experiment: Phospho-STAT1 (Tyr701) LANCE Ultra TR-FRET Detection Assay; type: cell-based; conditions: 48 hours, phospho-STAT1 (Tyr701) induction, read-out: NH1373 pSTAT1 EC50

C[C@@H](CCCn1ccc2cc(-c3ncc(C(F)(F)F)c(N)n3)c(F)cc2c1=O)Nc1cn[nH]c(=O)c1C(F)(F)F [Example 100, 6-[4-amino-5-(trifluoromethyl)pyrimidin-2-yl]-7-fluoro-2-[(4S)-4-[[6-oxo-5-(trifluoromethyl)-1H-pyridazin-4-yl]amino]pentyl]isoquinolin-1-one] showed an EC50 of 4.35 nM.
With C[C@@H](CCCn1ccc2cc(-c3ncc(C(F)(F)F)c(N)n3)c(F)cc2c1=O)Nc1cn[nH]c(=O)c1C(F)(F)F [Example 128, (S)-6-(4-amino-5-(trifluoromethyl)pyrimidin-2-yl)-7-fluoro-2-(4-((6-oxo-5-(trifluoromethyl)-1,6-dihydropyridazin-4-yl)amino)pentyl)isoquinolin-1(2H)-one] the EC50 was 16.7 nM.

same assay, conditions: Homo sapiens, NCI-H1373, 48 h, phospho-STAT1 (Tyr701) induction, read-out: NH1373 pSTAT1 EC50

First: C[C@@H](CCCn1ccc2cc(-c3ccc(C(F)(F)F)c(N)n3)c(F)cc2c1=O)Nc1cn[nH]c(=O)c1C(F)(F)F [Example 213]
Second: C[C@@H](CCCn1ccc2cc(-c3nc(C(F)(F)F)co3)c(F)cc2c1=O)Nc1cn[nH]c(=O)c1C(F)(F)F [Example 323, (S)-7-fluoro-2-(4-((6-oxo-5-(trifluoromethyl)-1,6-dihydropyridazin-4-yl)amino)pentyl)-6-(4-(trifluoromethyl)oxazol-2-yl)isoquinolin-1(2H)-one]
The EC50 of the first is 23-fold lower: 11.5 nM for the first, 260 nM for the second. The first is the more potent here.

Compared with CC(C)(O)[C@@H](CCCn1ccc2cc(-c3ncc(C(F)(F)F)cn3)c(F)cc2c1=O)Nc1cn[nH]c(=O)c1C(F)(F)F [Example 73, 7-fluoro-2-[(4R)-5-hydroxy-5-methyl-4-[[6-oxo-5-(trifluoromethyl)-1H-pyridazin-4-yl]amino]hexyl]-6-[5-(trifluoromethyl)pyrimidin-2-yl]isoquinolin-1-one], COC[C@@H](CCCn1ccc2cc(-c3ncc(C(F)(F)F)cn3)c(F)cc2c1=O)Nc1cn[nH]c(=O)c1C(F)(F)F [Example 135, (R)-7-fluoro-2-(5-methoxy-4-((6-oxo-5-(trifluoromethyl)-1,6-dihydropyridazin-4-yl)amino)pentyl)-6-(5-(trifluoromethyl)pyrimidin-2-yl)isoquinolin-1(2H)-one] is 41-fold lower in EC50: 734 nM for the first, 17.7 nM for the second. The second is the more potent here.

Nc1nc(-c2cc3ccn(C[C@@H]4CCC[C@H](Oc5cn[nH]c(=O)c5C(F)(F)F)C4)c(=O)c3cc2F)ncc1C(F)(F)F [Example 455, 6-(4-amino-5-(trifluoromethyl)pyrimidin-2-yl)-7-fluoro-2-(((1R,3S)-3-((6-oxo-5-(trifluoromethyl)-1,6-dihydropyridazin-4-yl)oxy)cyclohexyl)methyl)isoquinolin-1(2H)-one] and CC(C)(O)c1cnc(-c2cc3ccn(C[C@@H]4CCC[C@H](Nc5cn[nH]c(=O)c5C(F)(F)F)C4)c(=O)c3cc2F)nc1 [Example 284, 7-fluoro-6-(5-(2-hydroxypropan-2-yl)pyrimidin-2-yl)-2-(((1R,3S)-3-((6-oxo-5-(trifluoromethyl)-1,6-dihydropyridazin-4-yl)amino)cyclohexyl)methyl)isoquinolin-1(2H)-one] are within 1.5-fold of each other in EC50: 38.2 nM for the first, 51.7 nM for the second.

Compared with C[C@@H](CCCn1ccc2cc(-c3ncc(C(F)(F)F)cc3C#N)c(F)cc2c1=O)Nc1cn[nH]c(=O)c1C(F)(F)F [Example 289, (S)-2-(7-fluoro-1-oxo-2-(4-((6-oxo-5-(trifluoromethyl)-1,6-dihydropyridazin-4-yl)amino)pentyl)-1,2-dihydroisoquinolin-6-yl)-5-(trifluoromethyl)nicotinonitrile], C[C@@H](CCCn1ccc2cc(-c3ncc(C(F)(F)F)c(N4CCS(=O)(=O)C4)n3)c(F)cc2c1=O)Nc1cn[nH]c(=O)c1C(F)(F)F [Example 317, (S)-6-(4-(1,1-dioxidothiazolidin-3-yl)-5-(trifluoromethyl)pyrimidin-2-yl)-7-fluoro-2-(4-((6-oxo-5-(trifluoromethyl)-1,6-dihydropyridazin-4-yl)amino)pentyl)isoquinolin-1(2H)-one] is 2.4-fold lower in EC50: 108 nM for the first, 45.1 nM for the second. The second is the more potent here.

Compared with C[C@@H](CCCn1ccc2cc(-c3cnc(C(F)(F)F)c(N)n3)c(F)c(F)c2c1=O)Nc1cn[nH]c(=O)c1C(F)(F)F [Example 349, (S)-6-(6-amino-5-(trifluoromethyl)pyrazin-2-yl)-7,8-difluoro-2-(4-((6-oxo-5-(trifluoromethyl)-1,6-dihydropyridazin-4-yl)amino)pentyl)isoquinolin-1(2H)-one], Nc1nc(-c2cc3ccn(CCC[C@H](COC(F)F)Nc4cn[nH]c(=O)c4C(F)(F)F)c(=O)c3c(F)c2F)ncc1Cl [Example 391, (R)-6-(4-amino-5-chloropyrimidin-2-yl)-2-(5-(difluoromethoxy)-4-((6-oxo-5-(trifluoromethyl)-1,6-dihydropyridazin-4-yl)amino)pentyl)-7,8-difluoroisoquinolin-1(2H)-one] is 1.9-fold lower in EC50: 11.8 nM for the first, 6.3 nM for the second.

[2H]C([2H])([2H])OC[C@@H](CCCn1cnc2cc(-c3ncc(C(F)F)cn3)c(F)cc2c1=O)Nc1cn[nH]c(=O)c1C(F)(F)F [Example 431] and CC[C@@H](CCCn1ccc2cc(-c3ncc(C(F)F)cn3)c(F)cc2c1=O)Nc1cn[nH]c(=O)c1C(F)(F)F [Example 345, (S)-6-(5-(difluoromethyl)pyrimidin-2-yl)-7-fluoro-2-(4-((6-oxo-5-(trifluoromethyl)-1,6-dihydropyridazin-4-yl)amino)hexyl)isoquinolin-1(2H)-one] are within 1.5-fold of each other in EC50: 6.42 nM for the first, 6.71 nM for the second.

Cc1nc(-c2cc3ccn(CCC[C@H](C)Nc4cn[nH]c(=O)c4C(F)(F)F)c(=O)c3cc2F)nc(N)c1Cl [Example 319, (S)-6-(4-amino-5-chloro-6-methylpyrimidin-2-yl)-7-fluoro-2-(4-((6-oxo-5-(trifluoromethyl)-1,6-dihydropyridazin-4-yl)amino)pentyl)isoquinolin-1(2H)-one] and C[C@@H](CCCn1ccc2cc(-c3ncc4c(n3)NCC4(C)C)c(F)cc2c1=O)Nc1cn[nH]c(=O)c1C(F)(F)F [Example 112, 6-(5,5-dimethyl-6,7-dihydropyrrolo[2,3-d]pyrimidin-2-yl)-7-fluoro-2-[(4S)-4-[[6-oxo-5-(trifluoromethyl)-1H-pyridazin-4-yl]amino]pentyl]isoquinolin-1-one] are within 1.5-fold of each other in EC50: 2.92 nM for the first, 2.07 nM for the second.

Going from CC[C@@H](CCCn1cnc2cc(-c3ccc(OC(F)F)cn3)c(F)cc2c1=O)Nc1cn[nH]c(=O)c1C(F)(F)F [Example 340, (S)-7-(5-(difluoromethoxy)pyridin-2-yl)-6-fluoro-3-(4-((6-oxo-5-(trifluoromethyl)-1,6-dihydropyridazin-4-yl)amino)hexyl)quinazolin-4(3H)-one] to O=c1[nH]ncc(N[C@H](CCCn2cnc3cc(-c4cnc(C5CC5)cn4)c(F)cc3c2=O)COC(F)F)c1C(F)(F)F [Example 413, (R)-7-(5-cyclopropylpyrazin-2-yl)-3-(5-(difluoromethoxy)-4-((6-oxo-5-(trifluoromethyl)-1,6-dihydropyridazin-4-yl)amino)pentyl)-6-fluoroquinazolin-4(3H)-one], the EC50 falls from 97.1 nM to 4.59 nM (21-fold).

Compared with O=c1[nH]ncc(N[C@H](CCCn2cnc3cc(-c4ccc5c(n4)NCCO5)c(F)cc3c2=O)COC(F)F)c1C(F)(F)F [Example 425, (R)-3-(5-(difluoromethoxy)-4-((6-oxo-5-(trifluoromethyl)-1,6-dihydropyridazin-4-yl)amino)pentyl)-7-(3,4-dihydro-2H-pyrido[3,2-b][1,4]oxazin-6-yl)-6-fluoroquinazolin-4(3H)-one], COc1cnc(-c2cc3ncn(CCC[C@H](C)Nc4cn[nH]c(=O)c4C(F)(F)F)c(=O)c3cc2F)nc1N1CC(O)C1 [Example 208] is 21-fold higher in EC50: 9.83 nM for the first, 206 nM for the second. The first is the more potent here.
